In US11147778B2, “Siderophore-polymer conjugates for increasing bacterial sensitivity to antibiotics” (Wisconsin Alumni Research Foundation, priority 2016, dated 2021):

Key:
[1] = tested on: P. aeruginosa MDR 24530; experiment: Broth microdilution MIC / FICI; assay type: cell-based; conditions: Pseudomonas aeruginosa, MDR24530; MDR 24530; antibiotic alone; read-out: MIC
Description: (§1) Antimicrobial efficacy was assessed by the broth microdilution assay in accordance with NCCLS guidelines (Coyle, Marie B. Manual of antimicrobial susceptibility testing. American Society for Microbiology, 2005). Organisms were grown overnight on non-selective MHA medium in order to obtain single colonies. Three to five morphologically distinct colonies were touched with a sterile pipet tip and transferred to a culture tube containing MHB (4 mL), and the broth culture was incubated at 37° C. until its turbidity matched a 0.5 McFarland Standard. The inoculum was then diluted 1:20 in sterile water, followed by a 1:10 dilution when inoculating wells of a 96-well plate. […] For combinations, the fractional inhibitory concentration index (FICI) was calculated using the following equation: […]

[2] = tested on: P. aeruginosa MDR 3072; experiment: Broth microdilution MIC / FICI; assay type: cell-based; conditions: Pseudomonas aeruginosa, MDR3072; MDR 3072; antibiotic alone; read-out: MIC
Description: as §1

[3] = tested on: P. aeruginosa MDR 2638; experiment: Broth microdilution MIC / FICI; assay type: cell-based; conditions: Pseudomonas aeruginosa, MDR2638; MDR 2638; antibiotic alone; read-out: MIC
Description: as §1

[4] = tested on: E. coli ATCC 25922; experiment: Broth microdilution MIC / FICI; assay type: cell-based; conditions: Escherichia coli, ATCC25922; E. coli ATCC 25922; antibiotic alone; Table 3; read-out: MIC
Description: (§2) Antimicrobial efficacy was assessed by the broth microdilution assay in accordance with NCCLS guidelines (Coyle, Marie B. Manual of antimicrobial susceptibility testing. American Society for Microbiology, 2005). Organisms were grown overnight on non-selective MHA medium in order to obtain single colonies. Three to five morphologically distinct colonies were touched with a sterile pipet tip and transferred to a culture tube containing MHB (4 mL), and the broth culture was incubated at 37° C. until its turbidity matched a 0.5 McFarland Standard. The inoculum was then diluted 1:20 in sterile water, followed by a 1:10 dilution when inoculating wells of a 96-well plate. […] For combinations, the fractional inhibitory concentration index (FICI) was calculated using the following equation: [formula]

[5] = tested on: P. aeruginosa ATCC 27853; experiment: Broth microdilution MIC / FICI; assay type: cell-based; conditions: Pseudomonas aeruginosa, ATCC27853; ATCC 27853; antibiotic alone; Table 3; read-out: MIC
Description: as §2

[6] = tested on: P. aeruginosa PAO1; experiment: Broth microdilution MIC / FICI; assay type: cell-based; conditions: Pseudomonas aeruginosa; PAO1; antibiotic alone; Table 3; read-out: MIC
Description: as §2

[7] = tested on: P. aeruginosa MDR strain 24530; experiment: Disk diffusion, zones of inhibition; assay type: cell-based, Pseudomonas aeruginosa; conditions: 24530
Description: (§3) Single colonies were grown in MHB to match a 0.5 McFarland standard. A sterile cotton swab was dipped into the various MDR strain inoculums and spread evenly over the surface of the agar plates. Purchased antibiotic-containing disks at fixed concentrations (Table 4) were placed on the surface of each plate and incubated overnight at 37° C. Zones of inhibition were measured the following morning. Measurements included the diameter (d) of the antibiotic disk (6 mm) and are reported in terms of diameters and areas. […] Typically for diameters, R<10, I 11-15, and S>15 where R=resistance, I=intermediate resistance, and S=susceptible.

[8] = tested on: P. aeruginosa ATCC 27853; experiment: Disk diffusion, zones of inhibition; assay type: cell-based, Pseudomonas aeruginosa; conditions: 27853
Description: as §3

[9] = tested on: P. aeruginosa PAO1; experiment: Disk diffusion, zones of inhibition; assay type: cell-based, Pseudomonas aeruginosa; conditions: PAO1
Description: as §3

[10] = tested on: P. aeruginosa MDR strain 3072; experiment: Disk diffusion, zones of inhibition; assay type: cell-based, Pseudomonas aeruginosa; conditions: 3072
Description: as §3

[11] = tested on: Pseudomonas aeruginosa 26975; parameters: key: S = susceptible; I = intermediate; R = resistant; conditions: strain 26975; cited from earlier work
[12] = tested on: Pseudomonas aeruginosa 24530; parameters: key: S = susceptible; I = intermediate; R = resistant; conditions: strain 24530; cited from earlier work
[13] = tested on: Pseudomonas aeruginosa 3072; parameters: key: S = susceptible; I = intermediate; R = resistant; conditions: strain 3072; cited from earlier work
[14] = tested on: Pseudomonas aeruginosa 823; parameters: key: S = susceptible; I = intermediate; R = resistant; conditions: strain 823; cited from earlier work
[15] = tested on: Pseudomonas aeruginosa 3070; parameters: key: S = susceptible; I = intermediate; R = resistant; conditions: strain 3070; cited from earlier work
[16] = tested on: Pseudomonas aeruginosa 3068; parameters: key: S = susceptible; I = intermediate; R = resistant; conditions: strain 3068; cited from earlier work
[17] = tested on: Pseudomonas aeruginosa 3071; parameters: key: S = susceptible; I = intermediate; R = resistant; conditions: strain 3071; cited from earlier work
[18] = tested on: Pseudomonas aeruginosa 3076; parameters: key: S = susceptible; I = intermediate; R = resistant; conditions: strain 3076; cited from earlier work
[19] = tested on: Pseudomonas aeruginosa 2638; parameters: key: S = susceptible; I = intermediate; R = resistant; conditions: strain 2638; cited from earlier work
[20] = tested on: Pseudomonas aeruginosa 9139; parameters: key: S = susceptible; I = intermediate; R = resistant; conditions: strain 9139; cited from earlier work
[21] = Pseudomonas aeruginosa, disks NVB 30 μg, ERY 15 μg, RIF 5 μg, VAN 30 μg, MHA with or without 256 μM DG-F125, includes 6 mm disk, read-out: zone of inhibition, d

CO[C@H]1/C=C/O[C@@]2(C)Oc3c(C)c(O)c4c(O)c(c(/C=N/N5CCN(C)CC5)c(O)c4c3C2=O)NC(=O)/C(C)=C\C=C\[C@H](C)[C@H](O)[C@@H](C)[C@@H](O)[C@@H](C)[C@H](OC(C)=O)[C@@H]1C [RIF, rifampicin]
MIC [1]: 16 µg/mL
MIC [2]: 16 µg/mL
MIC [3]: 8 µg/mL
MIC [4]: 4 µg/mL
MIC [5]: 16 µg/mL
MIC [6]: 16 µg/mL
zone of inhibition, A ([7]; same disks and plates): 0 mm^2
zone of inhibition at 5 µg/disc [7, 21]: 0 mm
zone of inhibition, A ([8]; same disks and plates): 0 mm^2
zone of inhibition at 5 µg/disc ([8]; Pseudomonas aeruginosa, ATCC27853, disks NVB 30 μg, ERY 15 μg, RIF 5 μg, VAN 30 μg, MHA with or without 256 μM DG-F125, includes 6 mm disk, read-out: zone of inhibition, d): 0 mm
zone of inhibition, A ([9]; same disks and plates): 33 mm^2
zone of inhibition at 5 µg/disc [9, 21]: 6.5 mm
zone of inhibition, A ([10]; same disks and plates): 0 mm^2
zone of inhibition at 5 µg/disc [10, 21]: 0 mm

O=C(O)c1cn(C2CC2)c2cc(N3CCNCC3)c(F)cc2c1=O [CIP, ciprofloxacin]
Phenotype (drug resistance profile) [11]: S
Phenotype (drug resistance profile) [12]: S
Phenotype (drug resistance profile) [13]: R
Phenotype (drug resistance profile) [14]: S
Phenotype (drug resistance profile) [15]: R
Phenotype (drug resistance profile) [16]: R
Phenotype (drug resistance profile) [17]: CAZ-R, TZP-R, CIP-R
Phenotype (drug resistance profile) [18]: R
Phenotype (drug resistance profile) [19]: CAZ-R, TZP-R, CIP-R, TOB-R
Phenotype (drug resistance profile) [20]: S

CC(C)(O/N=C(\C(=O)N[C@@H]1C(=O)N2C(C(=O)[O-])=C(C[n+]3ccccc3)CS[C@H]12)c1csc(N)n1)C(=O)O [CAZ, ceftazidime]
Phenotype (drug resistance profile) [11]: R
Phenotype (drug resistance profile) [12]: R
Phenotype (drug resistance profile) [13]: S
Phenotype (drug resistance profile) [14]: R
Phenotype (drug resistance profile) [15]: R
Phenotype (drug resistance profile) [16]: S
Phenotype (drug resistance profile) [17]: CAZ-R, TZP-R, CIP-R
Phenotype (drug resistance profile) [18]: R
Phenotype (drug resistance profile) [19]: CAZ-R, TZP-R, CIP-R, TOB-R
Phenotype (drug resistance profile) [20]: S

C[C@@H](O)[C@H]1C(=O)N2C(C(=O)O)=C(S[C@@H]3CN[C@H](C(=O)N(C)C)C3)[C@H](C)[C@H]12 [MEM, meropenem]
Phenotype (drug resistance profile) [11]: S
Phenotype (drug resistance profile) [12]: DOR-R, IPM-R, MEM-R, FEP-R,
Phenotype (drug resistance profile) [13]: R
Phenotype (drug resistance profile) [14]: S
Phenotype (drug resistance profile) [15]: R
Phenotype (drug resistance profile) [16]: DOR-R, IPM-R, MEM-R, FEP-R,
Phenotype (drug resistance profile) [17]: DOR-R, IPM-R, MEM-R, FEP-R,
Phenotype (drug resistance profile) [18]: R
Phenotype (drug resistance profile) [19]: DOR-R, IPM-R, MEM-R, FEP-R,
Phenotype (drug resistance profile) [20]: S

CO/N=C(\C(=O)N[C@@H]1C(=O)N2C(C(=O)[O-])=C(C[N+]3(C)CCCC3)CS[C@H]12)c1csc(N)n1 [FEP, cefepime]
Phenotype (drug resistance profile) [11]: R
Phenotype (drug resistance profile) [12]: DOR-R, IPM-R, MEM-R, FEP-R,
Phenotype (drug resistance profile) [13]: S
Phenotype (drug resistance profile) [14]: R
Phenotype (drug resistance profile) [15]: I
Phenotype (drug resistance profile) [16]: DOR-R, IPM-R, MEM-R, FEP-R,
Phenotype (drug resistance profile) [17]: DOR-R, IPM-R, MEM-R, FEP-R,
Phenotype (drug resistance profile) [18]: I
Phenotype (drug resistance profile) [19]: DOR-R, IPM-R, MEM-R, FEP-R,
Phenotype (drug resistance profile) [20]: R

NC[C@H]1O[C@H](O[C@H]2[C@H](O)[C@@H](O[C@H]3O[C@H](CO)[C@@H](O)[C@H](N)[C@H]3O)[C@H](N)C[C@@H]2N)[C@H](N)C[C@@H]1O [TOB, tobramycin]
Phenotype (drug resistance profile) [11]: R
Phenotype (drug resistance profile) [12]: S
Phenotype (drug resistance profile) [13]: R
Phenotype (drug resistance profile) [14]: S
Phenotype (drug resistance profile) [18]: S
Phenotype (drug resistance profile) [19]: CAZ-R, TZP-R, CIP-R, TOB-R
Phenotype (drug resistance profile) [20]: S

C[C@@H](O)[C@H]1C(=O)N2C(C(=O)O)=C(S[C@@H]3CN[C@H](CNS(N)(=O)=O)C3)[C@H](C)[C@H]12 [DOR, doripenem]
Phenotype (drug resistance profile) [11]: S
Phenotype (drug resistance profile) [12]: DOR-R, IPM-R, MEM-R, FEP-R,
Phenotype (drug resistance profile) [13]: R
Phenotype (drug resistance profile) [14]: S
Phenotype (drug resistance profile) [15]: R
Phenotype (drug resistance profile) [16]: DOR-R, IPM-R, MEM-R, FEP-R,
Phenotype (drug resistance profile) [17]: DOR-R, IPM-R, MEM-R, FEP-R,
Phenotype (drug resistance profile) [18]: R
Phenotype (drug resistance profile) [19]: DOR-R, IPM-R, MEM-R, FEP-R,
Phenotype (drug resistance profile) [20]: S
